Experimental data from PubChem BioAssay AID328 (DTP/NCI, 2004).
Where “and” joins values, the source holds several entries; their conditions need not be identical. Identical values can stand only once. Inconclusive results and toxic doses are left out.

Tested on: BDF1 mice, P388 leukemia ip, median survival T/C
Assay: NCI In Vivo Anticancer Drug Screen. Data for tumor model P388 Leukemia (intraperitoneal) in B6D2F1 (BDF1) mice
Conditions: endpoint: median survival time, higher = longer survival
Summary of the method: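 Reported as T/C, where T is the survival measurement in dosed animals and C the same measurement in vehicle controls.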

[1] = dose: 400.0 mg/kg/injection, schedule: Q01DX009 (ip), vehicle: saline with Tween-80
[2] = dose: 200.0 mg/kg/injection, schedule: Q01DX009 (ip), vehicle: Klucel (hydroxypropylcellulose) (HPC)
[3] = dose: 400.0 mg/kg/injection, schedule: Q01DX009 (ip), vehicle: Klucel (hydroxypropylcellulose) (HPC)
[4] = dose: 100.0 mg/kg/injection, schedule: Q01DX009 (ip), vehicle: saline
[5] = dose: 50.0 mg/kg/injection, schedule: Q01DX009 (ip), vehicle: saline
[6] = dose: 100.0 mg/kg/injection, schedule: Q04DX003 (ip), vehicle: saline with Tween-80
[7] = dose: 200.0 mg/kg/injection, schedule: Q04DX003 (ip), vehicle: saline with Tween-80
[8] = dose: 400.0 mg/kg/injection, schedule: Q04DX003 (ip), vehicle: saline with Tween-80
[9] = dose: 50.0 mg/kg/injection, schedule: Q01DX009 (ip), vehicle: saline with Tween-80
[10] = dose: 100.0 mg/kg/injection, schedule: Q01DX009 (ip), vehicle: saline with Tween-80
[11] = dose: 100.0 mg/kg/injection, schedule: Q04DX003 (ip), vehicle: saline
[12] = dose: 200.0 mg/kg/injection, schedule: Q04DX003 (ip), vehicle: saline
[13] = dose: 100.0 mg/kg/injection, schedule: Q01DX009 (ip), vehicle: Klucel (hydroxypropylcellulose) (HPC)
[14] = dose: 100.0 mg/kg/injection, schedule: Q04DX003 (ip), vehicle: Klucel (hydroxypropylcellulose) (HPC)
[15] = dose: 200.0 mg/kg/injection, schedule: Q01DX009 (ip), vehicle: saline with Tween-80

SMILES: COc1cc2cc(c1Cl)NC(=O)CC(OC(=O)C(C)N(C)C(C)=O)C1(C)OC1C(C)C1CC(O)(NC(=O)O1)C(OC)C=C/C=C(\C)C2 (stereo not given)
- T/C (dose: 0.1 micrograms/kg/injection, schedule: Q01DX009 (ip), vehicle: saline + alcohol): 120 % of control
- T/C (dose: 0.2 micrograms/kg/injection, schedule: Q01DX009 (ip), vehicle: saline + alcohol): 110 % of control
- T/C (dose: 0.4 micrograms/kg/injection, schedule: Q01DX009 (ip), vehicle: saline + alcohol): 115 % of control
- T/C (dose: 0.8 micrograms/kg/injection, schedule: Q01DX009 (ip), vehicle: saline + alcohol): 110 % of control
- T/C (dose: 6.2 micrograms/kg/injection, schedule: Q01DX009 (ip), vehicle: saline + alcohol): 170 % of control
- T/C (dose: 12.5 micrograms/kg/injection, schedule: Q01DX009 (ip), vehicle: saline + alcohol): 120 % of control
- T/C (dose: 25.0 micrograms/kg/injection, schedule: Q01DX009 (ip), vehicle: saline + alcohol): 185 % of control
- T/C (dose: 50.0 micrograms/kg/injection, schedule: Q01DX009 (ip), vehicle: saline + alcohol): 120 % of control

SMILES: CCC(CO)NC(=O)/C=C/c1cc(OC)ccc1OC (stereo not given)
- T/C [1]: 91 % of control

SMILES: O=C1OC(c2ccccc2)(c2ccccc2)c2ccccc21
- T/C (dose: 45.0 mg/kg/injection, schedule: Q01DX009 (ip), vehicle: Klucel (hydroxypropylcellulose) (HPC)): 100 % of control
- T/C (dose: 65.0 mg/kg/injection, schedule: Q01DX009 (ip), vehicle: Klucel (hydroxypropylcellulose) (HPC)): 90 % of control
- T/C (dose: 150.0 mg/kg/injection, schedule: Q01DX009 (ip), vehicle: Klucel (hydroxypropylcellulose) (HPC)): 90 % of control
- T/C [2]: 90 % of control
- T/C [3]: 86 % of control

SMILES: CC1=CC(=O)c2c(O)ccc(O)c2C1=O
- T/C (dose: 1.25 mg/kg/injection, schedule: Q01DX009 (ip), vehicle: alcohol): 114 % of control
- T/C (dose: 2.5 mg/kg/injection, schedule: Q01DX009 (ip), vehicle: alcohol): 122 % of control

SMILES: O=C(O)c1ccc(C(=O)O)c(C(=O)O)c1.[NH-]C1CCCCC1[NH-].[Pt+2]
- T/C (dose: 30.0 mg/kg/injection, schedule: Q01DX001 (ip), vehicle: sodium bicarbonate): 164 % of control
- T/C (dose: 50.0 mg/kg/injection, schedule: Q01DX001 (ip), vehicle: sodium bicarbonate): 162 % of control

SMILES: COC(=O)CN(c1c(C)cc(C)c(N)c1C)S(=O)(=O)c1ccccc1
- T/C (dose: 100.0 mg/kg/injection, schedule: Q01DX001 (ip), vehicle: Klucel (hydroxypropylcellulose) (HPC)): 91 % of control
- T/C (dose: 400.0 mg/kg/injection, schedule: Q01DX001 (ip), vehicle: Klucel (hydroxypropylcellulose) (HPC)): 100 % of control

SMILES: CN(C)N=Nc1ccc(-c2ccccc2)cc1
- T/C (dose: 25.0 mg/kg/injection, schedule: Q01DX009 (ip), vehicle: saline with Tween-80): 99 % of control

SMILES: O=C(O)c1ccccc1Oc1ccccc1C(=O)O
- T/C [4]: 100 % of control
- T/C (dose: 200.0 mg/kg/injection, schedule: Q01DX009 (ip), vehicle: saline): 90 % of control
- T/C (dose: 400.0 mg/kg/injection, schedule: Q01DX009 (ip), vehicle: saline): 104 % of control

SMILES: [N-]=[N+]=C1C=C(c2ccccc2)N=C1c1ccccc1
- T/C [5]: 109 % of control
- T/C [4]: 88 % of control

SMILES: CC1=C2C(=C(CBr)OS1(=O)=O)C(=O)c1ccccc12
- T/C [6]: 104 % of control
- T/C [7]: 104 % of control
- T/C [8]: 104 % of control

SMILES: OC1CCCC12CC2 (stereo not given)
- T/C [9]: 100 % of control
- T/C [10]: 102 % of control

SMILES: CCNC(C)(C)C(=O)c1ccco1
- T/C [11]: 100 % of control
- T/C [12]: 100 % of control

SMILES: O=C(O)Cc1ccc(C2CCCCC2)cc1
- T/C [13]: 91 % of control and 95 % of control
- T/C [2]: 90 % of control
- T/C [3]: 90 % of control and 100 % of control

SMILES: CCCCCCCCC1SC1CCCCCCCC(=O)OCCOCCOCC (stereo not given)
- T/C [11]: 88 % of control
- T/C [12]: 88 % of control
- T/C (dose: 400.0 mg/kg/injection, schedule: Q04DX003 (ip), vehicle: saline): 92 % of control

SMILES: CCOS(C)(=O)=O
- T/C [5]: 90 % of control
- T/C [4]: 100 % of control
- T/C [11]: 100 % of control
- T/C [12]: 105 % of control

SMILES: Fc1c(Cl)c(Cl)c(Cl)c(Cl)c1Cl
- T/C (dose: 44.0 mg/kg/injection, schedule: Q01DX009 (ip), vehicle: other): 104 % of control
- T/C (dose: 66.0 mg/kg/injection, schedule: Q01DX009 (ip), vehicle: other): 100 % of control
- T/C (dose: 100.0 mg/kg/injection, schedule: Q01DX009 (ip), vehicle: other): 95 % of control
- T/C [14]: 100 % of control
- T/C (dose: 150.0 mg/kg/injection, schedule: Q01DX009 (ip), vehicle: other): 91 % of control
- T/C [15]: 105 % of control
- T/C (dose: 200.0 mg/kg/injection, schedule: Q04DX003 (ip), vehicle: Klucel (hydroxypropylcellulose) (HPC)): 90 % of control
- T/C [1]: 90 % of control
- T/C (dose: 400.0 mg/kg/injection, schedule: Q04DX003 (ip), vehicle: Klucel (hydroxypropylcellulose) (HPC)): 100 % of control

SMILES: COc1cc(O)c2c(c1)C(=O)c1cc3c(c(O)c1C2=O)C(OC1OC(C)C(OC)C(O)C1OC)C(OC)C(C)(O)C3=O (stereo not given)
- T/C (dose: 17.5 mg/kg/injection, schedule: Q01DX009 (ip), vehicle: saline): 86 % of control
- T/C (dose: 35.0 mg/kg/injection, schedule: Q01DX009 (ip), vehicle: saline): 93 % of control
- T/C [9]: 97 % of control
- T/C (dose: 70.0 mg/kg/injection, schedule: Q01DX009 (ip), vehicle: saline): 93 % of control
- T/C [10]: 120 % of control
- T/C [15]: 116 % of control

SMILES: O=C(/C=N\O)c1ccncc1
- T/C (dose: 50.0 mg/kg/injection, schedule: Q04DX003 (ip), vehicle: Klucel (hydroxypropylcellulose) (HPC)): 100 % of control
- T/C [14]: 100 % of control

SMILES: NSc1ccc([N+](=O)[O-])cc1
- T/C (dose: 100.0 mg/kg/injection, schedule: Q01DX001 (ip), vehicle: other): 109 % of control

SMILES: CCCCCCCCCCCCCCCCCCNC(=O)Nc1ccc(C)c(C)c1
- T/C [6]: 109 % of control
- T/C [7]: 109 % of control
- T/C [8]: 109 % of control

SMILES: O=C(CSCSCC(=O)Nc1ccc(C2=NCCN2)cc1)Nc1ccc(C2=NCCN2)cc1
- T/C (dose: 10.0 mg/kg/injection, schedule: Q01DX009 (ip), vehicle: Klucel (hydroxypropylcellulose) (HPC)): 91 % of control
- T/C (dose: 12.5 mg/kg/injection, schedule: Q04DX003 (ip), vehicle: saline): 100 % of control
- T/C (dose: 25.0 mg/kg/injection, schedule: Q01DX009 (ip), vehicle: Klucel (hydroxypropylcellulose) (HPC)): 100 % of control and 115 % of control
- T/C (dose: 50.0 mg/kg/injection, schedule: Q01DX009 (ip), vehicle: Klucel (hydroxypropylcellulose) (HPC)): 165 % of control
- T/C (dose: 50.0 mg/kg/injection, schedule: Q04DX003 (ip), vehicle: saline): 104 % of control and 109 % of control
- T/C (dose: 75.0 mg/kg/injection, schedule: Q04DX003 (ip), vehicle: saline): 104 % of control
- T/C [13]: 90 % of control
- T/C [11]: 114 % of control
- T/C (dose: 135.0 mg/kg/injection, schedule: Q04DX003 (ip), vehicle: saline): 157 % of control
- T/C [12]: 157 % of control

SMILES: COc1cc([N+](=O)[O-])ccc1N
- T/C [6]: 100 % of control
